Experimental data taken from patent EP0100158A2, “(3-pyridinyl)heteroalkarylalkanols, alkanoic acids and esters” (THE UPJOHN COMPANY, priority 1982, dated 1984).

Target: T1, TXA2 synthetase (Homo sapiens, UniProt P24557)
T1 construct: generated by mixing prostaglandin H2 (PGH2) with human platelet microsomes (HPM); from tissue; host or cells: human platelet microsomes
T1 sequence (P24557 1-533): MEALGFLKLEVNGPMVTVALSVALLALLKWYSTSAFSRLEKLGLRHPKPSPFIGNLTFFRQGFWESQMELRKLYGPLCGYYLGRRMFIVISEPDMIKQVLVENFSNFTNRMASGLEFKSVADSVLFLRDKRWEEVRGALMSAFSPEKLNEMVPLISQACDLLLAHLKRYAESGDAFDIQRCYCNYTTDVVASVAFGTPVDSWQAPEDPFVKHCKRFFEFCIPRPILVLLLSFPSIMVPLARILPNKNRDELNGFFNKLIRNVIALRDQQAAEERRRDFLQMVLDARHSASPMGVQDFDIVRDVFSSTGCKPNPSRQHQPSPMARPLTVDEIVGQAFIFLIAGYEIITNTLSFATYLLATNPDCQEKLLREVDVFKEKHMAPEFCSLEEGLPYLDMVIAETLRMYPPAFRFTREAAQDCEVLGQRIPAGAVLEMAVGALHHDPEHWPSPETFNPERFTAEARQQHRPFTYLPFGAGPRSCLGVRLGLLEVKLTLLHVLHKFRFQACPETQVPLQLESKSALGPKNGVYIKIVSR
Experiment: TXA2 inhibition test: TXA2 generated from PGH2 with human platelet microsomes, response measured on superfused rabbit aortic strips
Type: biochemical
Details: inhibition of TXA2 formation; test compound added to human platelet microsomes 5 minutes before mixing with PGH2; rabbit aorta readout; read-out: approximate ED50's (converted)
Method: The compounds of the present invention were tested for TXAz inhibition as follows: • Rabbit aortic strips were superfused in series with Krebs solution. Thromboxane Az (TXA2) was generated by mixing prostaglandin H2 (PGH2) with human platelet microsomes (HPM).
Potential inhibitors were tested by comparing the response of the rabbit aorta to the amount of TXAz produced by mixing PGH2 and HPM without the test compound in the reaction medium and then the amount of TXAz produced when the test compound was added to the HPM 5 minutes before the HPM was mixed with PGH2.

## O=C(O)c1cc(CNc2cccnc2)ccc1O
  IC50: ~0.0376 µM
